Assay results from the NIST ThermoML archive (doi:10.1016/j.jct.2005.07.017).
± gives the expanded uncertainty stated by the source.

Details: 298.15 K; 101.33 kPa; Liquid

mass density	SMILES
735.99 ± 0.86 kg/m3	COC(C)(C)C [2-methoxy-2-methylpropane]
848.1 ± 0.73 kg/m3	CC1CCCO1 (centres undefined) [2-methyltetrahydrofuran]
698.73 ± 0.86 kg/m3	CCCCCCCC [octane]
882.09 ± 0.64 kg/m3	C1CCOC1 [tetrahydrofuran]
